Results: patent US10875850B2, “Pesticidally active azetidine sulfones amide isoxazoline derivatives” (SYNGENTA PARTICIPATIONS AG, priority 2016, dated 2020)

Assays:
Assay type in all cases: in vivo
Plutella xylostella [1] = assay: Comparative Example C1: Plutella xylostella, feeding/contact activity, various application rates; conditions: 5 days after infestation
Procedure: 24-well microtiter plates with artificial diet were treated with aqueous test solutions prepared from 10′000 ppm DMSO stock solutions by pipetting. After drying, the plates were infested with L2 larvae (10 to 15 per well). The samples were assessed for mortality (%) 5 days after infestation at the various application rates.

Spodoptera littoralis [2] = assay: Comparative Example C2: Spodoptera littoralis, feeding/contact activity, various application rates; conditions: 3 days after infestation
Procedure: (§1) Cotton leaf discs were placed onto agar in 24-well microtiter plates and sprayed with aqueous test solutions prepared from 10′000 ppm DMSO stock solutions. After drying the leaf discs were infested with five L1 larvae. The samples were assessed for mortality (%) 3 days after infestation at the various application rates. Example C3: Tetranychus urticae (Two-Spotted Spider Mite): Feeding/Contact Activity Bean leaf discs on agar in 24-well microtiter plates were sprayed with aqueous test solutions prepared from 10′000 ppm DMSO stock solutions. After drying the leaf discs were infested with a mite population of mixed ages. The samples were assessed for mortality on mixed population (%) (mobile stages) 8 days after infestation at the various application rates.

Tetranychus urticae [3] = assay: Comparative Example C3: Tetranychus urticae, feeding/contact activity, various application rates; conditions: 8 days after infestation
Procedure: as §1

Thrips tabaci [4] = assay: Comparative Example C4: Thrips tabaci, feeding/contact activity, various application rates; conditions: 6 days after infestation
Procedure: Sunflower leaf discs were placed on agar in 24-well microtiter plates and sprayed with aqueous test solutions prepared from 10′000 ppm DMSO stock solutions. After drying the leaf discs were infested with a thrips population of mixed ages. The samples were assessed for mortality (%) 6 days after infestation at the various application rates.

Myzus persicae [5] = assay: Example B8: Myzus persicae (green peach aphid), feeding/contact activity; conditions: 144 h
Procedure: Sunflower leaf discs were placed onto agar in a 24-well microtiter plate and sprayed with aqueous test solutions prepared from 10′000 ppm DMSO stock solutions. After drying, the leaf discs were infested with an aphid population of mixed ages. The samples were assessed for mortality 6 days after infestation.

Plutella xylostella [6] = assay: Example B4: Plutella xylostella (diamond back moth), artificial diet; conditions: 120 h, read-out: effect in at least one of the two categories (mortality or growth inhibition)
Procedure: (§2) 24-well microtiter plates with artificial diet were treated with aqueous test solutions prepared from 10′000 ppm DMSO stock solutions by pipetting. After drying, the plates were infested with L2 larvae (10 to 15 per well). The samples were assessed for mortality and growth inhibition in comparison to untreated samples 5 days after infestation. The following compounds gave an effect of at least 80% in at least one of the two categories (mortality or growth inhibition) at an application rate of 200 ppm: A01, A02, A03, A04, A05, A06, A07, A08, A09, A10, A11, A12, A13, A14, A15, A16, A17, A18, A19, A20, A21, A22, A23, A24, A25, A26, A27, A28, B01

Thrips tabaci [7] = assay: Example B7: Thrips tabaci (onion thrips), feeding/contact activity; conditions: 144 h
Procedure: Sunflower leaf discs were placed on agar in 24-well microtiter plates and sprayed with aqueous test solutions prepared from 10′000 ppm DMSO stock solutions. After drying the leaf discs were infested with a thrips population of mixed ages. The samples were assessed for mortality 6 days after infestation.

Tetranychus urticae [8] = assay: Example B6: Tetranychus urticae (two-spotted spider mite), feeding/contact activity; conditions: 192 h, read-out: mortality on mixed population (mobile stages)
Procedure: Bean leaf discs on agar in 24-well microtiter plates were sprayed with aqueous test solutions prepared from 10′000 ppm DMSO stock solutions. After drying the leaf discs were infested with a mite population of mixed ages. The samples were assessed for mortality on mixed population (mobile stages) 8 days after infestation.

Euschistus heros = assay: Example B2: Euschistus heros (neotropical brown stink bug), soybean leaves sprayed; conditions: 120 h, read-out: effect in at least one of the two categories (mortality or growth inhibition)
Procedure: Soybean leaves on agar in 24-well microtiter plates were sprayed with aqueous test solutions prepared from 10′000 ppm DMSO stock solutions. After drying the leaves were infested with N2 nymphs. The samples were assessed for mortality and growth inhibition in comparison to untreated samples 5 days after infestation. The following compounds gave an effect of at least 80% in at least one of the two categories (mortality or growth inhibition) at an application rate of 200 ppm: A01, A02, A03, A04, A05, A06, A07, A08, A09, A10, A11, A12, A13, A14, A15, A16, A17, A18, A19, A20, A21, A22, A23, A24, A25, A26, A27, A28, B01

Spodoptera littoralis [9] = assay: Example B5: Spodoptera littoralis (Egyptian cotton leaf worm), feeding/contact activity; conditions: 72 h
Procedure: Cotton leaf discs were placed onto agar in 24-well microtiter plates and sprayed with aqueous test solutions prepared from 10′000 ppm DMSO stock solutions. After drying the leaf discs were infested with five L1 larvae. The samples were assessed for mortality 3 days after infestation.

Diabrotica balteata = assay: Example B1: Diabrotica balteata (corn root worm), maize sprouts sprayed; conditions: 96 h, read-out: effect in at least one of the two categories (mortality or growth inhibition)
Procedure: as §2, with “Maize sprouts placed onto an agar layer in 24-well” for “24-well”, “plates” for “plates with artificial diet”, “by spraying.” for “by pipetting.”, “larvae (6” for “larvae (10”, “to 10” for “to 15”, “samples 4” for “samples 5”

Myzus persicae [10] = assay: Example B3: Myzus persicae (green peach aphid), intrinsic activity; conditions: 120 h
Procedure: Test compounds prepared from 10′000 ppm DMSO stock solutions were applied by pipette into 24-well microtiter plates and mixed with sucrose solution. The plates were closed with a stretched Parafilm. A plastic stencil with 24 holes was placed onto the plate and infested pea seedlings were placed directly on the Parafilm. The infested plate was closed with a gel blotting paper and another plastic stencil and then turned upside down. The samples were assessed for mortality 5 days after infestation.

Cc1cc(C2=NOC(c3cc(Cl)cc(Cl)c3)(C(F)(F)F)C2)ccc1C(=O)NC1CN(S(C)(=O)=O)C1 (centres unmarked) [Compound A02]
Plutella xylostella larval average mortality (%) (Plutella xylostella [1]; application rate 0.195 ppm): 80%
Plutella xylostella larval average mortality (%) (Plutella xylostella [1]; application rate 0.781 ppm): 100%
Plutella xylostella larval average mortality (%) (Plutella xylostella [1]; application rate 3.12 ppm): 100%
Plutella xylostella larval average mortality (%) (Plutella xylostella [1]; application rate 12.5 ppm): 100%
Plutella xylostella larval average mortality (%) (Plutella xylostella [1]; application rate 50 ppm): 100%
Plutella xylostella larval average mortality (%) (Plutella xylostella [1]; application rate 200 ppm): 100%
Spodoptera littoralis larval average mortality (%) (Spodoptera littoralis [2]; application rate 0.195 ppm): 50%
Spodoptera littoralis larval average mortality (%) (Spodoptera littoralis [2]; application rate 0.781 ppm): 100%
Spodoptera littoralis larval average mortality (%) (Spodoptera littoralis [2]; application rate 3.12 ppm): 100%
Spodoptera littoralis larval average mortality (%) (Spodoptera littoralis [2]; application rate 12.5 ppm): 100%
Spodoptera littoralis larval average mortality (%) (Spodoptera littoralis [2]; application rate 50 ppm): 100%
Spodoptera littoralis larval average mortality (%) (Spodoptera littoralis [2]; application rate 200 ppm): 100%
Tetranychus urticae mixed population average mortality (%) (Tetranychus urticae [3]; application rate 0.195 ppm): 0%
Tetranychus urticae mixed population average mortality (%) (Tetranychus urticae [3]; application rate 0.781 ppm): 50%
Tetranychus urticae mixed population average mortality (%) (Tetranychus urticae [3]; application rate 3.12 ppm): 100%
Tetranychus urticae mixed population average mortality (%) (Tetranychus urticae [3]; application rate 12.5 ppm): 100%
Tetranychus urticae mixed population average mortality (%) (Tetranychus urticae [3]; application rate 50 ppm): 100%
Tetranychus urticae mixed population average mortality (%) (Tetranychus urticae [3]; application rate 200 ppm): 100%
Thrips tabaci mixed population average mortality (%) (Thrips tabaci [4]; application rate 0.195 ppm): 0%
Thrips tabaci mixed population average mortality (%) (Thrips tabaci [4]; application rate 0.781 ppm): 100%
Thrips tabaci mixed population average mortality (%) (Thrips tabaci [4]; application rate 3.12 ppm): 100%
Thrips tabaci mixed population average mortality (%) (Thrips tabaci [4]; application rate 12.5 ppm): 100%
Thrips tabaci mixed population average mortality (%) (Thrips tabaci [4]; application rate 50 ppm): 100%
Thrips tabaci mixed population average mortality (%) (Thrips tabaci [4]; application rate 200 ppm): 100%

CS(=O)(=O)N1CC(NC(=O)c2ccc(C3=NOC(c4cc(Cl)c(F)c(Cl)c4)(C(F)(F)F)C3)c3c2CCC3)C1 (centres unmarked) [Compound B01, 7-[5-(3,5-dichloro-4-fluoro-phenyl)-5-(trifluoromethyl)-4H-isoxazol-3-yl]-N-(1-methylsulfonylazetidin-3-yl)indane-4-carboxamide]
mortality at 200 ppm (Myzus persicae [5]): ≥ 80%
percent control (mortality or growth inhibition) at 200 ppm (Plutella xylostella [6]): ≥ 80%
mortality at 200 ppm (Thrips tabaci [7]): ≥ 80%
mortality at 200 ppm (Tetranychus urticae [8]): ≥ 80%
percent control (mortality or growth inhibition) at 200 ppm (Euschistus heros): ≥ 80%
mortality at 200 ppm (Spodoptera littoralis [9]): ≥ 80%
percent control (mortality or growth inhibition) at 200 ppm (Diabrotica balteata): ≥ 80%

CCS(=O)(=O)N1CC(NC(=O)c2ccc(C3=NO[C@@](c4cc(Cl)cc(Cl)c4)(C(F)(F)F)C3)cc2C)C1 [Compound A11, 4-[(5S)-5-(3,5-dichlorophenyl)-5-(trifluoromethyl)-4H-isoxazol-3-yl]-N-(1-ethylsulfonylazetidin-3-yl)-2-methyl-benzamide]
percent control (mortality or growth inhibition) at 200 ppm (Plutella xylostella [6]): ≥ 80%
mortality at 12 ppm (Myzus persicae [10]): ≥ 80%
mortality at 200 ppm (Thrips tabaci [7]): ≥ 80%
mortality at 200 ppm (Tetranychus urticae [8]): ≥ 80%
percent control (mortality or growth inhibition) at 200 ppm (Euschistus heros): ≥ 80%
mortality at 200 ppm (Spodoptera littoralis [9]): ≥ 80%
percent control (mortality or growth inhibition) at 200 ppm (Diabrotica balteata): ≥ 80%
